Entries after “also recorded” stand apart in the source; their conditions may differ.
Tested on: Mice
Experiment: Permanent middle carotid artery occlusion (pMCAO) model of stroke
Assay type: in vivo
Description: FIGS. 9A-9E: Evaluation of the furoxan 31b. […] Latency to fall was normalized to 4 h post-infarct mean for each group and is represented as mean and s.e.m. (n=12). Analyzed using one way ANOVA analysis with Tukey's post-hoc test. […] Each of the seven tests included in the 28-point NDS was graded from 0-4, with higher scores indicating severe deficits (n=12). Compared using unpaired t-test. […] Compared using unpaired t-test. For all data, *=p<0.05, **=p<0.01, ***=p<0.001.
31b (20 mg/kg, i.p.) was administered once daily for 6 days beginning 12 hr after permanent MCAO (pMCAO, FIG. 9A). pMCAO was chosen rather than 2-VO because pMCAO is much simpler and more reliable (pMCAO-no loss of animals vs 2-VO˜30% lethality 7 days post-op). Ultimately, this model allowed for the provision of evidence of neuroprotective efficacy and effect on BDNF.
Locomotor activity was evaluated by means of a rotarod task by a person blinded to the treatment groups. Mice were placed on a horizontal rod (Columbus Instruments, OH) that was made to rotate at 1 rpm with an acceleration rate of 1 rpm every 10 s until the animal fell from the rod. Each animal was tested three times per trial. All the animals were trained on the rotarod assembly prior to surgery. The duration for which each animal was able to stay on the accelerating rod was recorded as the latency to fall and registered manually. Locomotor activity was monitored 4 h before, 24 h, postsurgery and 7 days after p-MCAO surgery Grip strength was evaluated by holding the mice by tails and placing their forelimbs on a specially designed pull bar assemblies (Grip strength meter, Columbus Instruments, OH). […] Each animal was tested three times per trial at 4 h before, 2 and 7 days after p-MCAO surgery. NDS were evaluated by an optimized 28-point score pattern. A person blinded to the treatment evaluated NDS 7 days after p-MCAO; the evaluation included both sensory and motor deficits, such as body symmetry, gait, climbing, circling behavior, front limb symmetry, compulsory circling, and whisker response. Each of the seven tests included in the 28-point NDS was graded from 0 to 4, with higher scores indicating severe deficits. Animals from all the groups were euthanized 7 days after p-MCAO. Brains were dissected out and sliced into five 2-mm-thick coronal sections before incubating in 1% triphenyltetrazolium chloride (TTC) (Sigma Co., MI). The infarct area was estimated from five slices of each brain, measuring rostral and caudal sides of each individual slice in conjunction with the thickness and expressed as a percentage of the volume of the contralateral hemisphere. A person blinded to the treatment groups measured the infarct volume with the help of ImageJ software provided by NIH.

[1] = 20 mg/kg i.p. once daily for 6 days beginning 12 hr after pMCAO, day 7

In the case of CC1CCN(Cc2no[n+]([O-])c2-c2ccc(F)cc2)CC1 [31b], the Infarct volume reduction (20 mg/kg i.p. once daily for 6 days after pMCAO, TTC staining, p=0.11) is reported as ~30%, the “BDNF levels relative to control animals” value (20 mg/kg i.p. once daily for 6 days after pMCAO, WB, p=0.07) is reported as “double the levels of control animals” and the “Behavioral functional recovery, neurologic deficit scoring (NDS)” value [1] is reported as “reverses neurologic deficit; also recorded: significant improvement”. The “Behavioral functional recovery, rotarod” value [1] was “improves rotarod performance; also recorded: significant improvement”.
